# Measurements as given in ChEMBL document CHEMBL1201862, “PubChem BioAssay data set” (2004).
# Active and inactive are the calls of the source.
# Legend:
# Protein RecA = biological target: T1, Protein RecA (Mycobacterium tuberculosis, UniProt P9WHJ3); experiment: Fluorescence Cell-Free Homogeneous Dose Retest to Identify Inhibitors of RecA-Intein Splicing Activity. [Related pubchem assays (depositor defined):AID2097, AID2223, AID489010, AID492950]; type: functional
# T1 sequence (P9WHJ3 whole entry): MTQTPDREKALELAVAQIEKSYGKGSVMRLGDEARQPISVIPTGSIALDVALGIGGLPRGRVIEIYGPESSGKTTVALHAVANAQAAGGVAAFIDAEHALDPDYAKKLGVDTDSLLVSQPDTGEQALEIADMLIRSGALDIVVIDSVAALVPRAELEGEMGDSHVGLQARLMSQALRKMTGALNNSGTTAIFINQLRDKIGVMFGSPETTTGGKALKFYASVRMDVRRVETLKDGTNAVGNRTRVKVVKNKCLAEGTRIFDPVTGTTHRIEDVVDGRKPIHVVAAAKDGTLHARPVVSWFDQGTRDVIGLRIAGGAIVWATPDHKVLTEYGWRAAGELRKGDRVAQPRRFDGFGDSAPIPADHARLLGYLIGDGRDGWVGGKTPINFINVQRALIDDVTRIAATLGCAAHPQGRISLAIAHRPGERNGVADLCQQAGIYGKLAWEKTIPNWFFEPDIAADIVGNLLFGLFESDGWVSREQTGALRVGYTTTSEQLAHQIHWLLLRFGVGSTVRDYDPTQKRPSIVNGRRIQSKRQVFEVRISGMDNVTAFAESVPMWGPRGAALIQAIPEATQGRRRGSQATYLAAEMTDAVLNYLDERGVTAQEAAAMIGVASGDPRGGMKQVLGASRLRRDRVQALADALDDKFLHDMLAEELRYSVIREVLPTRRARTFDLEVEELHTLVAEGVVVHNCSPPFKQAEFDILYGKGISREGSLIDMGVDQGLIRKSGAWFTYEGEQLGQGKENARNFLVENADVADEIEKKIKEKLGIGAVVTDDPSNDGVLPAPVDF
# [1] = biological target: T2, Replicative DNA helicase DnaB (Mycobacterium tuberculosis, UniProt P9WMR3); experiment: DnaB intein splicing inhibitors, dose response, biochemical, cell-free fluorescence (AID 449749); type: functional
# T2 sequence (P9WMR3 whole entry): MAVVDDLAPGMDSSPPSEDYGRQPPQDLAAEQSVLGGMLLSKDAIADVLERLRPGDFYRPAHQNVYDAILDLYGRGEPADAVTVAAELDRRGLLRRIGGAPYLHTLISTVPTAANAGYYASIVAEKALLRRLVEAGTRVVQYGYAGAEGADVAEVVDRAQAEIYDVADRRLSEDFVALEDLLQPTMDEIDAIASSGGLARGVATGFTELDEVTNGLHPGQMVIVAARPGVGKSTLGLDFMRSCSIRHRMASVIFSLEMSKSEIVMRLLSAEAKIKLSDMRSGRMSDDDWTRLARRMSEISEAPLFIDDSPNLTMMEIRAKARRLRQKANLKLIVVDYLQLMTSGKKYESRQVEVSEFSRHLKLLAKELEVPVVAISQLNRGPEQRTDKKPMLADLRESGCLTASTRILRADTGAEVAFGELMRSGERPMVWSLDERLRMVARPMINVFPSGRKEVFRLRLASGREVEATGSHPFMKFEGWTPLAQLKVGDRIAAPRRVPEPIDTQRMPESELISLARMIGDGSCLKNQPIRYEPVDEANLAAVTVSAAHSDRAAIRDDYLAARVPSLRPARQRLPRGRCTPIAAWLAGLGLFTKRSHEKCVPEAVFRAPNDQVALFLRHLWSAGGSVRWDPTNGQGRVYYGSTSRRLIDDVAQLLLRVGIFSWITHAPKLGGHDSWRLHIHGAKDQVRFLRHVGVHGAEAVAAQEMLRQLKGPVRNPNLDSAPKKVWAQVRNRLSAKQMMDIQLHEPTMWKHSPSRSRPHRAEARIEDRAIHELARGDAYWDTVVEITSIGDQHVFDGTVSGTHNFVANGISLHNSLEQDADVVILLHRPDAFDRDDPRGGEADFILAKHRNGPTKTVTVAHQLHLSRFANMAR
# Cytochrome P450 1A2 = biological target: T3, Cytochrome P450 1A2 (Homo sapiens, UniProt P05177);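 also: PubChem cytochrome P450 panel assay, CYP1A2 panel member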
# T3 sequence (P05177 whole entry): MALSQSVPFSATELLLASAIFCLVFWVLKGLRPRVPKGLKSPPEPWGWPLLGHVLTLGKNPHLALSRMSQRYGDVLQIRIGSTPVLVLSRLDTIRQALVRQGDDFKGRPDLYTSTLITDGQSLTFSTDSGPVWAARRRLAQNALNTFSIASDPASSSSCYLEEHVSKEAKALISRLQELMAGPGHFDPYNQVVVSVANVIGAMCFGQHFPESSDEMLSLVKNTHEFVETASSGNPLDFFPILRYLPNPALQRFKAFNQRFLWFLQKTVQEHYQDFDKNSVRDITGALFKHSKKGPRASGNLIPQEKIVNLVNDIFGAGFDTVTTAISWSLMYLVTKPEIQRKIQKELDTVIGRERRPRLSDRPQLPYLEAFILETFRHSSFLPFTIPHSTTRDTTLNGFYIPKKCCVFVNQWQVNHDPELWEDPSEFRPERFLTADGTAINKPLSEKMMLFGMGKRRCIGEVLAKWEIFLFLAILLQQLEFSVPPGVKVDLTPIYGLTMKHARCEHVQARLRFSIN
# Cytochrome P450 3A4 = Cytochrome P450 3A4 (Homo sapiens, UniProt P08684);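 also: CYP3A4 tested as one member of a cytochrome P450 panel screen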
# Cytochrome P450 2C19 = Cytochrome P450 2C19 (Homo sapiens, UniProt P33261); experiment: Cytochrome panel assay with activity outcomes. Panel member name: p450-cyp2c19 Compounds with AC50 equal or less than 10 uM are considered active; type: functional
# [2] = biological target: T4, Heat shock factor protein 1 (Mus musculus, UniProt P38532); experiment: inhibition of MG132-induced HSE-luciferase signal, confirmation, cell-based, NIH3T3, luminescence, dose retest (AID 2382); type: functional;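 also: NIH3T3 fibroblasts with HSF1-driven luciferase reporter stressed by proteasome inhibitor MG132; luminescence from HSF1-driven luciferase expression after 8 hours of MG132 stress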
# T4 sequence (P38532 whole entry): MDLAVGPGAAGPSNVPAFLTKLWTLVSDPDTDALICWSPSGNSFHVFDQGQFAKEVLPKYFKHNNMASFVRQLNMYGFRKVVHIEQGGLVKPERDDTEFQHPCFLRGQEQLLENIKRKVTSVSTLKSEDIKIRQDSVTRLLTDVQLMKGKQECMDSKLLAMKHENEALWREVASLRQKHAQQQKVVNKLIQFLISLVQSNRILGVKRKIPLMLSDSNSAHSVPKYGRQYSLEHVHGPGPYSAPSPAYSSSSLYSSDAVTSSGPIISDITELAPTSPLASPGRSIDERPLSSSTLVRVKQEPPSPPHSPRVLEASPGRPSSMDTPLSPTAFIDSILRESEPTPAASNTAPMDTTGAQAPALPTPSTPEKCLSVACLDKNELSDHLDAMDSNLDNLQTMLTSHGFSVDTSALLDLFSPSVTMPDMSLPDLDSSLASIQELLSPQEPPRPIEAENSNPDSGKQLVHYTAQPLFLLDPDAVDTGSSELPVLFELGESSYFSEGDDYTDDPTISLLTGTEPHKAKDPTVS
# Sequence of Cytochrome P450 2C19 (P33261 whole entry): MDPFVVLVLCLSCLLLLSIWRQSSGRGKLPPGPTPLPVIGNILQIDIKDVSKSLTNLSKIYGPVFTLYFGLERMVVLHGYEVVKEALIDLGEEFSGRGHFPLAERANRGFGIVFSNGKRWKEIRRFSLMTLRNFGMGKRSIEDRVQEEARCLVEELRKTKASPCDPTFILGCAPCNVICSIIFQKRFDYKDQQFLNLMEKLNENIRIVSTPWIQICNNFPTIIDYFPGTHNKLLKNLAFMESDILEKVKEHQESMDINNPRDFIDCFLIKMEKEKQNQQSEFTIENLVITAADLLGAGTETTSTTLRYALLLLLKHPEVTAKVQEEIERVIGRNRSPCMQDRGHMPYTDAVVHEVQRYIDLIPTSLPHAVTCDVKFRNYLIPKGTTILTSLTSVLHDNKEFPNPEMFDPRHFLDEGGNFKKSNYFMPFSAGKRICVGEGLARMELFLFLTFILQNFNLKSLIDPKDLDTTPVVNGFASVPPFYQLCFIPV
# Sequence of Cytochrome P450 3A4 (P08684 whole entry): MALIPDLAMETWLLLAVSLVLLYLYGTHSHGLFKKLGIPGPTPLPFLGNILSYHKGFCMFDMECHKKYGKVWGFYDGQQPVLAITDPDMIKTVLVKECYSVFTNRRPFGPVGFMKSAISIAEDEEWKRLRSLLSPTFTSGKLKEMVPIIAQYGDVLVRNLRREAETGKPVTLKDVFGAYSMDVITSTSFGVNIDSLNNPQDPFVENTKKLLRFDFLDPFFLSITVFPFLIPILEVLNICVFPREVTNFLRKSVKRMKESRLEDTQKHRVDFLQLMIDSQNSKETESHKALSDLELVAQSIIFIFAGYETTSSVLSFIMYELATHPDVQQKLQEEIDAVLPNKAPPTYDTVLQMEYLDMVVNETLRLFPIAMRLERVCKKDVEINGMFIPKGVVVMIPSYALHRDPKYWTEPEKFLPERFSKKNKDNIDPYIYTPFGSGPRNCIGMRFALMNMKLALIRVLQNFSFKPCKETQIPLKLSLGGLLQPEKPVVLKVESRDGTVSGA
structure (smiles),measurement,setting,value
O=C(O)c1cccc(Cn2c(Cl)c(/C=N/Nc3ccccc3)sc2=O)c1,EC50,Protein RecA,> 380 µM (inactive)
same,AC50,[1],> 380 µM (inactive)
O=C(Oc1ccc(OC(=O)c2ccco2)c(S(=O)(=O)c2ccc(Br)cc2)c1)c1ccco1,AC50,Cytochrome P450 1A2,2.24 µM (inconclusive)
same,AC50,Cytochrome P450 3A4,5.62 µM (inconclusive)
same,AC50,Cytochrome P450 2C19; read-out: AC50,1.41 µM (inconclusive)
COc1ccc(CNC(=O)CCCCCNC(=O)N2CCn3c2nc2ccccc23)cc1,EC50,[2],> 195 µM (not active)
Cc1ccc2c(c1)c1c(n2CC(O)CN2CCOCC2)CCCC1 (centres undefined),EC50,[2],> 195 µM (not active)
COC(=O)c1cc(NC(=O)Nc2ccccc2OC)cc(C(=O)OC)c1,EC50,Protein RecA,> 380 µM (inactive)
CCOC(=O)CSc1nc(C)cc(Oc2ccc(=O)n(C)n2)n1,EC50,[2],28.1 µM (active)
N[C@]1(C(=O)O)CCc2cc(P(=O)(O)O)ccc21,AC50,Cytochrome P450 1A2,39.8 µM (inconclusive)
same,AC50,Cytochrome P450 2C19; read-out: AC50,15.8 µM (inconclusive)
Cc1ccc(SC(C)C(=O)NCc2cccnc2)cc1 (centres undefined),AC50,Cytochrome P450 3A4,1 µM (inconclusive)
same,AC50,Cytochrome P450 2C19; read-out: AC50,7.08 µM (inconclusive)
CCOc1cc(/C=C2\C(=O)N(CCC#N)N=C2C)ccc1OCC(N)=O,EC50,Protein RecA,3.61 µM (active)
same,AC50,[1],6.01 µM (active)
COc1cc(/C=N/NC(=O)c2ccc(F)cc2)ccc1OC(=O)c1ccco1,EC50,Protein RecA,20 µM (active)
same,AC50,[1],24 µM (active)
COC1(OC)N=C(NC(=O)Nc2ccccc2)C2(C#N)C(c3ccccc3)C12C#N (centres undefined),AC50,Cytochrome P450 1A2,39.8 µM (inconclusive)
same,AC50,Cytochrome P450 2C19; read-out: AC50,5.01 µM (inconclusive)
O=C(c1cc(F)c(F)cc1Cl)N1CCN(c2ccc([N+](=O)[O-])c3ncccc23)CC1,EC50,Protein RecA,11.8 µM (active)
same,AC50,[1],3.47 µM (active)
O=C(O)c1cccc2cc(-c3ccccc3)oc(=O)c12,EC50,[2],> 195 µM (not active)
CC(=O)c1c(N2CCC(C(N)=O)CC2)nc(=S)n(-c2ccccc2)c1C,AC50,Cytochrome P450 2C19; read-out: AC50,31.6 µM (inconclusive)
CCOC(=O)N1CCN(C(=O)c2ccc(CS(=O)(=O)c3c(Cl)cccc3Cl)o2)CC1,EC50,[2],> 195 µM (not active)
CN1CCN(Cc2cc(=O)oc3ccc(Cl)cc23)CC1,EC50,Protein RecA,> 380 µM (inactive)
same,AC50,[1],> 380 µM (inactive)
CCCC[C@@H](CNC)NC[C@H](Cc1ccc(O)cc1)NCCc1ccc(OCC)cc1,EC50,[2],> 195 µM (not active)
Cc1ccc(Cn2c(C3CCCN3c3nc(C)cs3)nc3cc(C(F)(F)F)ccc32)cc1 (centres undefined),EC50,[2],> 195 µM (not active)
N#C[C@H]1[C@H](c2ccccc2)[C@](C#N)(C(=O)c2ccccc2)[C@@H]2C=Cc3ccccc3N21,EC50,Protein RecA,8.36 µM (active)
same,AC50,[1],> 380 µM (inactive)
CCOc1cc(/C=N/NC(=O)CN2CCCCC2)ccc1OCc1ccccc1,AC50,Cytochrome P450 2C19; read-out: AC50,25.1 µM (inconclusive)
Cn1cc(-c2nc3cnc(N4CCOCC4)nc3n(C3CC3)c2=O)c2ccccc21,AC50,Cytochrome P450 1A2,3.16 µM (inconclusive)
same,AC50,Cytochrome P450 3A4,7.94 µM (inconclusive)
same,AC50,Cytochrome P450 2C19,inconclusive
COc1ccc(-c2noc(CCC(=O)Nc3ccc(C)c(C)c3)n2)cc1,EC50,[2],> 195 µM (not active)
O=C(NC(=S)NC1C2CC3CC(C2)CC1C3)c1ccccc1 (centres undefined),EC50,[2],> 195 µM (not active)
COc1ccc(-c2nc(CSCC(=O)NCC3CCCO3)c(C)o2)cc1OC (centres undefined),AC50,Cytochrome P450 3A4,39.8 µM (inconclusive)
same,AC50,Cytochrome P450 2C19; read-out: AC50,31.6 µM (inconclusive)
Cc1n[nH]c(O)c1C(c1cc2c(cc1Br)OCO2)c1c(C)n[nH]c1O,EC50,Protein RecA,0.352 µM (active)
same,AC50,[1],0.723 µM (active)
COc1ccc(-c2cc(C(=O)NCc3cccnc3)no2)cc1OC,AC50,Cytochrome P450 2C19; read-out: AC50,28.2 µM (inconclusive)
O=C(CSC(=S)N1CCOCC1)Nc1nc(-c2ccccc2)c(-c2ccccc2)o1,EC50,[2],> 195 µM (not active)
CCSc1c([N+](=O)[O-])c(=O)n(-c2ccccc2)c2ccccc12,EC50,Protein RecA,155 µM (active)
same,AC50,[1],3.94 µM (active)
O=C(c1cccs1)[C@@H]1[C@@H]2C(=O)N(Cc3ccc4c(c3)OCO4)C(=O)[C@@H]2C2c3ccccc3C=CN21 (some centres undefined),EC50,Protein RecA,3.22 µM (active)
same,AC50,[1],4.09 µM (active)
O=C1C(Cl)=C(N2CCCCCC2)C(=O)N1c1ccccc1,EC50,Protein RecA,10.3 µM (active)
same,AC50,[1],> 380 µM (inactive)
Fc1ccc(Oc2nc(-c3ccccc3)nnc2C(F)(F)F)cc1,EC50,Protein RecA,2.28 µM (active)
same,AC50,[1],2.95 µM (active)
O=C(CN1C(=O)c2ccccc2S1(=O)=O)NCc1cccs1,EC50,[2],> 195 µM (not active)
O=C(c1ccco1)N1CCN=C1SCc1ccccc1F,EC50,[2],> 195 µM (not active)
N#C/C(=N\O)c1nc(-c2ccccc2)cs1,AC50,Cytochrome P450 3A4,15.8 µM (inconclusive)
same,AC50,Cytochrome P450 2C19; read-out: AC50,39.8 µM (inconclusive)
Cc1ccc(S(=O)(=O)N2CCN(S(C)(=O)=O)C2)cc1,EC50,[2],> 195 µM (not active)
O=C(O)CCCNC(=O)CCCNC(=O)C(c1ccccc1)c1ccccc1,EC50,[2],> 195 µM (not active)
N#CCCn1c(=O)c(CCc2ccccc2)nc2cnc(OCc3ccccc3)nc21,AC50,Cytochrome P450 1A2,12.6 µM (inconclusive)
same,AC50,Cytochrome P450 3A4,0.2 µM (inconclusive)
same,AC50,Cytochrome P450 2C19; read-out: AC50,39.8 µM (inconclusive)
